Measurements: patent publication US8198317B2, “Methylenedioxy phenolic compounds and their use to treat disease” (The Ohio State University Research Foundation, priority 2008, dated 2012)

What was measured:
[1] = test system: Watanabe Heritable Hyperlipidemic Rabbits (WHHL); assay: Western blot of VCAM-1 and ICAM-1 in WHHL rabbit aorta; assay type: in vivo
Procedure: Samples were homogenized and solubilized in radioimmunoprecipitation assay buffer (50 mM Tris-HCl, pH 7.4, 150 mM NaCl, 1 mM EDTA, 1 mM NaF, 1 mM Na3VO4) and 1 mM phenylmethylsulfonyl fluoride, with 0.25% sodiumdeoxycholate and 1.0% Nonidet P-40) and centrifuged at 10,000 g and 4° C. for 30 min. The supernatant was collected and subjected to Western blot analysis. In brief, 40 μg of protein was separated by SDS-polyacrylamide gel electrophoresis and subsequently transferred to nitrocellulose membrane. The membrane was then incubated with: monoclonal anti-β-actin (Sigma, St. Louis, Mo.), monoclonal anti-VCAM (R&D Systems, Minneapolis, Minn.), monoclonal anti-ICAM (R&D Systems, Minneapolis, Minn.), monoclonal anti-phospho-eNOS(pS 1177) (BD Biosciences, Billerica, Mass.), rabbit anti-eNOS (Santa Cruz Biotechnology, Santa Cruz, Calif.), rabbit anti-phospho-Akt (Thr308) (Cell Signaling Technology, Danvers, Mass.), goat anti-Akt (Santa Cruz Biotechnology, Santa Cruz, Calif.), and rabbit anti-p65 (Cell Signaling Technology, Danvers, Mass.). Finally, the membranes were incubated with a horseradish peroxidase-linked secondary antibody and visualized with an enhanced chemiluminescence kit (Amersham Biosciences Inc., Piscataway, N.J.). Band density was quantified by densitometric analysis using ImageJ.

[2] = test system: New Zealand White rabbits; assay: Plasma lipid profile in NZW rabbits; assay type: in vivo, rabbit; conditions: end of treatment
Procedure: Animal Model: 15 male New Zealand White rabbits (Charles River, Mass.) were fed with high fat diet (HFD) (Harlan Teklad rabbit diet with 0.5% cholesterol, TD 87251). After 4 weeks of high fat diet, rabbits were randomized into three different treatment groups, normal control (n=5), lipoic acid (100 mg/kg/day) (n=5), INV 70-65 (100 mg/kg/day) (n=5). These drugs were administered to the animals via their chow by mixing the drugs with the high fat diet. A fixed amount of chow and drugs admixed in the chow were fed to all animals every day after carefully calculating food intake in each rabbit. Drugs were dissolved in 100% ethanol and sprayed onto the diet and kept under vacuum to let ethanol evaporate overnight. Two (2) weeks after drug or control admixed HFD, all rabbits underwent aortic balloon denudation surgeries followed by 12 weeks of continued administration of drug or controls admixed with HFD. FIG. 29 provides an outline of the experimental design.
A lipid profile (Cholesterol, Triglycerides, direct HDL, LDL and VLDL) was performed after a total of 12 weeks of treatment with the drugs. One (1) ml of blood from the ear lobe vein was placed into tubes containing K EDTA at the beginning of the high cholesterol diet and again at the time of sacrifice. All values were expressed as mean±SD. The bar graph of each group both at the baseline and the end point measurement is presented. The statistical analysis was done with one way ANOVA.

PPARδ = biological target: T1, PPARδ (Homo sapiens, UniProt Q03181); assay: GAL4-PPARδ-LBD luciferase assay in HepG2 cells; assay type: cell-based; conditions: 1 μM to 1000 μM
T1 construct: GAL4-PPARδ-LBD plasmid+UAS-Luciferase; expressed in transfected cells; host or cells: HepG2
T1 sequence (Q03181 211-439 limits assumed, species assumed): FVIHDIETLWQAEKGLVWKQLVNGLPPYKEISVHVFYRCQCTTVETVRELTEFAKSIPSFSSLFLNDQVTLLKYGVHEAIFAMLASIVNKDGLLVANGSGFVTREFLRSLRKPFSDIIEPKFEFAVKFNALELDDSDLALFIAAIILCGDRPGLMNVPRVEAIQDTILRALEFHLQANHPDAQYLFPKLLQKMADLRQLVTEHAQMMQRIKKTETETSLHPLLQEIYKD
From the text: We used a reporter gene assay in HepG2 cells to screen for agonists of the peroxisome proliferator-activated receptors. Peroxisome proliferator-activated receptors (PPARs) and other members of the nuclear hormone receptor family are important drug targets for the treatment of metabolic diseases. PPARs play crucial roles in lipid and glucose metabolism, respectively. Therefore, screening methods that help to rapidly identify activators of these receptors should be of considerable value. INV-75 activated a classic PPARα gene, Acetyl-CoA Oxidase (ACO) in a dose dependent and time dependent fashion (FIG. 6A). The time course experiment was performed in presence of INV-75 up to 15 hours. […] We next tested the specificity of INV-75 for PPARα by performing experiments in HepG2 cells transfected with yeast GAL4-PPARα-LBD plasmid+UAS-Luciferase; GAL4-PPARδ-LBD plasmid+UAS-Luciferase and […]. The PPARα, PPARδ and PPARγ binding assays were performed using multiple concentrations of INV-75 (1 μM, 10 μM, 100 μM and 1000 μM). The level of luciferase activity corresponded to the degree of PPAR activation. The results were compared with classic PPAR agonists such as WY-14643 (PPARα agonist), Bezafibrate (PPARδ agonist) and Rosiglitazone ([…]).

Individuals = assay: Treatment of inflammatory arthritis (Example 26); assay type: in vivo, human; conditions: oral, 6 months
From the text: Individuals with rheumatoid arthritis, psoriatic arthritis and systemic lupus erythematosis suffer from recurrent bouts of inflammatory arthritis. They are usually on treatments such as non-steroidal agents such as cyclooxygenase inhibitors, anti-TNFα treatments and other types of immunotherapy. In addition to these treatments they will also receive an acceptable dose of a composition comprising a compound of the present invention in an acceptable carrier orally chronically for durations in excess of 6 months. In one study, 3,4-methylenedioxy-6-nitrophenyl acetate (INV 75) is administered to these individuals. The patients undergo an assessment of joint pains and inflammatory markers such as C-reactive protein (CRP) and erythrocyte sedimentation rate.

VCAM-1 = assay: ELISA of VCAM-1 release from TNF-α stimulated HUVEC; assay type: cell-based, human; conditions: HUVEC pretreated 24 hours, then 2 ng/mL TNF-α for 6 hours
Procedure: Cell Culture: All experiments were performed with cultured Human Umbilical Vein Endothelial Cells (HUVECs—Gibco, Invitrogen) and grown to confluence at 37° C. in a 5% CO2 humidified incubator, on tissue culture flasks previously coated with 1% gelatin in supplemented culture medium (M199 with 10% heat inactivated fetal calf serum, 100 U/ml penicillin, 100 μg/ml streptomycin, 2 mM glutamine, 10 mM HEPES, pH 7.4, heparin 12 I.U./ml, 1% retinal derived growth factor, Sigma). Following trypsin treatment, the cells were detached from the flasks and final mono-layers were prepared by seeding HUVECs on gelatin-precoated culture plates and then incubated for 24-48 h to ensure confluence. Cells up to the fourth passage were used for all experiments. Recombinant human TNF-α was purchased from R&D Systems (Minneapolis, Minn.).
Enzyme-Linked Immunosorbent Assay (ELISA): To measure the expression of cell surface adhesion molecules, ELISA technique was utilized (R and D Systems, Minneapolis, Minn.). […]
Enzyme-Linked Immunosorbent Assay (ELISA) and results: To measure the expression of cell surface adhesion molecules, ELISA technique was utilized. […] The expression of VCAM-1 and ICAM-1 were evaluated after TNF-α stimulation for 6 hours.

Compound | protein expression of ICAM-1 [1] | protein expression of VCAM-1 [1] | LDL level compared to normal control [2] | TC level compared to normal control [2] | effects on PPARδ (PPARδ) | joint pains and markers of inflammation (Individuals) | release of VCAM-1 (VCAM-1) | HDL levels [2] | VLDL levels compared to controls [2] | triglyceride (TG) levels compared to controls [2]
CC(=O)Oc1cc2c(cc1[N+](=O)[O-])OCO2 [INV-75, 3,4-methylenedioxy-6-nitrophenyl acetate] | markedly reduced | markedly reduced | moderate decreases | moderate decreases | without effects | marked improvement | marked reduction | – | – | –
O=C(CCCCC1CCSS1)Oc1ccc2c(c1)OCO2 (stereo not drawn) [INV-7065, 3,4-Methylenedioxy phenyl lipoate] | – | – | lower | – | – | – | – | insignificant change | slight decrease | significantly decreased
O=C(CCCCC1CCSS1)Oc1cc2c(cc1[N+](=O)[O-])OCO2 (stereo not drawn) [INV-7465, 3,4-Methylenedioxy 6-nitro phenyl lipoate] | – | – | – | – | – | – | marked reduction | – | – | –
